The results in this text go back to patent EP4361137A1, “PRUNE1 INHIBITORS AND THERAPEUTIC USE THEREOF” (CEINGE Biotecnologie Avanzate Franco Salvatore s.c. a r.l., priority 2022, dated 2024).

Data set [1] relates to D425-MED cells. The data set can be described thus: Real-time cell proliferation assay (cell index, xCELLigence). The format is cell-based, human. The conditions noted are these: D425-Med cells. The procedure: J774A.1 murine macrophages (referred to as J774 cells; ATCC: #TIB-67), MMTV-Prune1-Wnt1 cells were grown in high-glucose Dulbecco's modified Eagle's medium (DMEM; Euroclone) supplemented with 20% (v/v) FBS, 2 mM L-glutamine, and 1% (v/v) antibiotics (Pen/Strep). D425-MED, D425-MED-Luc and […] cells were grown in high-glucose Dulbecco's modified Eagle's medium (DMEM; Euroclone) and Iscove's Modified Dulbecco's Medium (IMDM; Sigma) at 1:1 (v/v) dilution supplemented with 20% (v/v) FBS, 2 mM L-glutamine, 1% non-essential amino acid solution (M7145; Sigma-Aldrich/Merck), and 1% (v/v) antibiotics (Pen/Strep). The cells were grown at 37 °C in a humidified atmosphere of 95% air, 5% CO2 (v/v).
D425.MED and MMTV-Prune1/Wnt1 cells were plated and treated with increasing concentrations of LEO-AA7.5(S)T for 24 hours. Water-treated cells were used as negative control for the experiments.
Cellular proliferation rates were determined with the xCELLigence system (Roche). D425-MED, MATH-Prune1/TP53-/- and MMTV-Prune1/Wnt1 cells (8 × 10^3) were treated with increasing concentrations of LEO-AA7.5(S)T, harvested, and then added to a single well of an xCELLigence E-plate 16. The proliferation rates were determined at 2-min intervals by measuring the impedance changes across the electrodes at the bottoms of the wells. These cell index values were calculated by the xCELLigence RTCA software. with vehicle-treated cells were the negative control. Impedance was measured every 2 min over 24 hours. The IC50 values were calculated through nonlinear regression analysis performed with Graph Pad Prism 9 ([inhibitor] vs. response (three parameters). Data are means ± SD of three independent experiments.

The subject of data set [2] is D425-MED-Luc. The data set can be described thus: Orthotopic xenograft of D425-MED-Luc cells in nude mice. Type of data set: in vivo. The conditions noted are these: 6 mg/kg/day intraperitoneally; for toxicity by total body weight, treated vs control mice / intracranial tumor growth (bioluminescence, photon emission) / PRUNE1 levels in cerebellar tumours (immunoblotting): HCl salt; for intracranial tumor growth (bioluminescence, photon emission): T21, after 14 days of treatment; for PRUNE1 levels in cerebellar tumours (immunoblotting): n.3 treated vs n.3 vehicle mice. The method, then:
Starting after seven days from tumour implantation (i.e., once the tumours were established) the mice (grouped according to their bioluminescence values) were injected intraperitoneally with LEO-AA7.5(S)T at 6 mg/kg/day, or with water as the vehicle for the control group. After n.28 days from tumour implantation (i.e., after three weeks of AA7.5 treatment), the mice were sacrificed, and the organs were collected.
D425-MED-luc [Ferrucci et al., 2018] were implanted into the right cerebellar hemisphere of female (n.14) athymic nude mice (5 weeks old), as previously described [Asadzadeh et al., 2018], to establish orthotopic intracerebellar D425-MED-Luc xenograft models. Nude mice were anaesthetised with Ketamine/ Xylazine (87.5 mg/kg, 12.5 mg/kg, respectively). The mice were then placed in a stereotactic frame by hooking their incisors onto the frame hold. A small skin incision (length, 1 mm) and a burr hole (diameter, 0.7 mm) were created using a microsurgical drill (Fine Science Tools, Foster City, CA, USA). D425-MED-Luc cells (1 ×10^5)were resuspended in 10 µL PBS and injected slowly through the burr hole into the right cerebellar hemisphere (stereotactic coordinates from Bregma: anteroposterior, 5.5 mm; right lateral, 2.1 mm; dorsoventral 5.0 mm), with a steady force over 30 s, using a 10-AL, 26-gauge Hamilton Gastight model 1701RN syringe needle (SigmaAldrich) that was inserted perpendicular to the cranial surface. The incision was sutured using Safil polyglycolic acid synthetic absorbable suture (6/0). The mice were kept on a warming blanket after the surgery, to help them to maintain their body temperature. Their mobility and respiratory patterns were observed continuously, and once the mice had recovered from the anaesthesia; they were place in a sterile housing cage. The mice were monitored daily for development of potential neurological deficits. Seven days after the implantation of the cells, the mice were imaged, and tumour growth was evaluated by bioluminescence acquisition using an imaging system (IVIS 3D Illumina; Xenogen/ Caliper). For the acquisitions, the mice were anaesthetised by inhalational of isoflurane, and the D-luciferin (122799; PerkinElmer) (15 mg/mL stock) was injected intraperitoneally (100 µL per 10 g body weight). At 5 min from the luciferin injection, the mice were imaged for 3 min. To quantify the bioluminescence, the integrated fluxes of photons (p/s) within each area of interest were determined using the Living Images Software Package 3.2 (Xenogen-Perkin Elmer). For LEO-AA7.5(S)T in-vivo treatment, starting after seven days from tumour implantation (i.e., once the tumours were established) the mice (grouped according to their bioluminescence values) were injected intraperitoneally with LEO-AA7.5(S)T at 6 mg/kg/day, or with water as the vehicle for the control group. After 28 days from tumour implantation (i.e., after three weeks of AA7.5 treatment), the mice were sacrificed, and the organs were collected.

Setting [3] is: listed as (S)-(1-(4-((4-methoxybenzyl)amino)-1,3,5-triazin-2-yl)piperidin-3-yl)methanol HC.

SMILES strings stand for the structures.

Turning to `COc1ccc(CNc2ncnc(N3CCC[C@H](CO)C3)n2)cc1.Cl` [LEO-AA7.5(S)T, (S)-(1-(4-((4-methoxybenzyl)amino)-1,3,5-triazin-2-yl)piperidin-3-yl)methanol HCl salt], the “cell proliferation rate, combination with Vincristine” value in data set [1] (10 µM added to 10 nM or 1 nM Vincristine) is “reduces the cell proliferation rate”. Moreover, in data set [1] (10 µM plus 22.5 µM Seclidemstat), the “inhibition of cell proliferation, combination with Seclidemstat [SP-2577]” value is reported as “enhance the inhibition of cell proliferation”. For the same compound, the “half maximal inhibitory concentration (IC50) for the inhibition of cell proliferation index” value in data set [1] (impedance every 2 min over 24 h) stood at 71 µM. For the same compound, in data set [2], the “EMT in cerebellar tumours (N-cadherin loss, increased E-cadherin)” value is “inhibition of EMT”; the “activated PTEN in cerebellar tumours (immunoblotting)” value is “overexpression”; the “nuclear phosphorylated SMAD2/3 and OTX2 in cerebellar tumours (immunoblotting)” value is reported as “inhibition”; the “toxicity by total body weight, treated vs control mice” value is listed as “No significant differences”. For the same compound, in data set [2], the “intracranial tumor growth (bioluminescence, photon emission)” value was “impairment of tumour growth” and the “PRUNE1 levels in cerebellar tumours (immunoblotting)” value is given as “downregulation of Prune1”. In data set [2] (setting [3]), the “intracranial tumor growth (bioluminescence, photon emission)” value was “significantly decreased”; the “toxicity by total body weight, treated vs control mice” value is recorded as “no decrease in total body weight”; the “PRUNE1 levels in cerebellar tumours (immunoblotting)” value is “reduced PRUNE1 levels”. For the same compound, the “treated mice showing metastases in the spinal cord” value in data set [2] (control mice 7 out of 7) is on record as “two out of seven”.
